Measured values from the supplement of paper PMC10307832.

Assays:
Experiment in all cases: relative viability (nuclei count vs DMSO), 5 days (fraction); higher = more cells survive
OSI-027 + Vorinostat = compound: COc1cccc2cc(-c3nc([C@H]4CC[C@H](C(=O)O)CC4)n4ncnc(N)c34)[nH]c12 [OSI-027] + O=C(CCCCCCC(=O)Nc1ccccc1)NO [Vorinostat] (partner 1 µM)
Outline: (§1)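 Values are medians from duplicate plates. Each reflects relative viability, defined as the nuclei count of treated wells over that of vehicle wells. Lung cancer cell lines in 1536-well plates were pin-tool dosed one day after seeding with one drug alone or with a fixed anchor-drug dose plus five library-drug doses (not always all listed) in √10 steps, then fixed, stained and imaged at 4× after 5 days.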

Vemurafenib + OSI-027 = compound: CCCS(=O)(=O)Nc1ccc(F)c(C(=O)c2c[nH]c3ncc(-c4ccc(Cl)cc4)cc23)c1F [Vemurafenib] + COc1cccc2cc(-c3nc([C@H]4CC[C@H](C(=O)O)CC4)n4ncnc(N)c34)[nH]c12 [OSI-027] (partner 0.5 µM)
Outline: as §1

Alpelisib + Pictilisib = compound: Cc1nc(NC(=O)N2CCC[C@H]2C(N)=O)sc1-c1ccnc(C(C)(C)C(F)(F)F)c1 [Alpelisib] + CS(=O)(=O)N1CCN(Cc2cc3nc(-c4cccc5[nH]ncc45)nc(N4CCOCC4)c3s2)CC1 [Pictilisib] (partner 1 µM)
Outline: as §1

Vemurafenib + Olaparib = compound: CCCS(=O)(=O)Nc1ccc(F)c(C(=O)c2c[nH]c3ncc(-c4ccc(Cl)cc4)cc23)c1F [Vemurafenib] + O=C(c1cc(Cc2n[nH]c(=O)c3ccccc23)ccc1F)N1CCN(C(=O)C2CC2)CC1 [Olaparib] (partner 8 µM)
Outline: as §1

Cell Line	relative viability (OSI-027 + Vorinostat; first compound 0.01 µM)	relative viability (OSI-027 + Vorinostat; first compound 0.03162 µM)	relative viability (OSI-027 + Vorinostat; first compound 0.1 µM)	relative viability (OSI-027 + Vorinostat; first compound 0.3162 µM)	relative viability (OSI-027 + Vorinostat; first compound 1 µM)	relative viability (Vemurafenib + OSI-027; first compound 0.03162 µM)	relative viability (Vemurafenib + OSI-027; first compound 0.1 µM)	relative viability (Vemurafenib + OSI-027; first compound 0.3162 µM)	relative viability (Vemurafenib + OSI-027; first compound 1 µM)	relative viability (Alpelisib + Pictilisib; first compound 0.04 µM)	relative viability (Alpelisib + Pictilisib; first compound 0.1265 µM)	relative viability (Alpelisib + Pictilisib; first compound 0.4 µM)	relative viability (Alpelisib + Pictilisib; first compound 1.265 µM)	relative viability (Alpelisib + Pictilisib; first compound 4 µM)	relative viability (Vemurafenib + Olaparib; first compound 0.03162 µM)	relative viability (Vemurafenib + Olaparib; first compound 0.1 µM)	relative viability (Vemurafenib + Olaparib; first compound 0.3162 µM)	relative viability (Vemurafenib + Olaparib; first compound 1 µM)
NCI-H1355	0.648	0.632	0.622	0.475	0.3	0.41	0.341	0.386	0.351	0.444	0.568	0.436	0.521	0.425	0.722	0.671	0.828	0.74
LXF-289	0.767	0.836	0.827	0.902	0.787	0.758	0.668	0.622	0.772	0.762	0.805	0.855	0.707	0.733	1.02	1.06	1.09	1
LOU-NH91	0.858	0.913	0.69	0.712	0.479	0.72	–	–	0.726	0.537	0.504	0.559	0.52	0.457	0.876	0.671	0.743	0.894
NCI-H2170	0.779	0.814	0.806	0.662	0.454	0.67	0.194	0.686	0.7	0.322	0.328	0.331	0.343	0.283	0.54	–	0.624	0.553
NCI-H2405	1.04	1.02	0.899	0.831	0.549	0.611	0.637	–	0.621	0.443	0.502	0.527	0.488	0.39	0.857	0.893	–	0.937
SK-MES-1	1.21	1.08	0.972	0.913	0.593	0.56	0.456	0.548	0.444	0.361	0.39	0.467	0.333	0.316	0.623	0.576	0.777	0.688
LCLC-103H	0.781	0.64	0.747	0.704	0.613	0.41	0.474	0.39	0.443	0.721	0.695	0.506	0.56	0.526	0.644	0.71	0.742	0.797
NCI-H322M	0.869	0.863	0.748	0.663	0.624	0.461	–	–	0.475	0.491	0.553	0.544	0.473	0.478	0.728	–	0.93	0.726
NCI-H23	0.58	0.232	0.406	0.398	0.303	0.566	0.543	0.547	0.349	0.605	0.493	0.528	0.419	0.464	0.309	0.326	0.295	0.343
HCC-15	0.835	0.838	0.779	0.616	0.424	0.648	0.73	–	0.52	0.721	0.673	0.822	0.716	0.63	0.699	0.669	0.606	0.522
NCI-H1437	0.859	0.767	0.861	0.848	0.521	0.857	0.85	0.855	0.875	0.416	0.482	0.441	0.37	0.335	0.629	0.589	0.615	0.637
A-427	0.886	0.844	0.78	0.721	0.542	0.488	0.404	0.453	0.466	0.694	0.641	0.741	0.675	0.718	0.71	0.663	–	0.701
NCI-H1975	0.722	0.647	0.672	0.657	0.496	0.647	0.631	0.4	0.564	0.28	0.297	0.299	0.273	0.248	0.728	0.755	0.727	0.793
SK-LU-1	0.809	0.618	0.682	0.563	0.411	0.315	0.342	0.245	0.269	0.592	0.484	0.656	0.594	0.536	0.368	0.418	0.393	0.392
NCI-H520	0.729	0.712	0.693	0.557	0.368	0.236	0.282	0.327	0.214	0.244	0.316	0.318	0.304	0.289	0.284	0.337	0.364	0.359
NCI-H1755	0.72	0.855	0.655	0.711	0.472	0.696	0.687	0.586	0.632	0.451	0.309	0.427	0.456	0.363	0.806	0.898	0.907	0.8
CAL-12T	1.06	0.585	0.68	0.535	0.321	0.542	0.461	0.801	0.503	0.388	–	0.65	–	0.329	0.686	0.663	0.83	0.829
NCI-H1734	0.912	0.781	0.728	0.707	0.455	0.583	0.568	0.49	0.507	0.472	0.427	0.494	0.397	0.343	0.55	0.62	0.611	0.615

Cell Line	relative viability (OSI-027 + Vorinostat; first compound 0.01 µM)	relative viability (OSI-027 + Vorinostat; first compound 0.03162 µM)	relative viability (OSI-027 + Vorinostat; first compound 0.1 µM)	relative viability (OSI-027 + Vorinostat; first compound 0.3162 µM)	relative viability (OSI-027 + Vorinostat; first compound 1 µM)	relative viability (Vemurafenib + OSI-027; first compound 0.03162 µM)	relative viability (Vemurafenib + OSI-027; first compound 0.1 µM)	relative viability (Vemurafenib + OSI-027; first compound 0.3162 µM)	relative viability (Vemurafenib + OSI-027; first compound 1 µM)	relative viability (Alpelisib + Pictilisib; first compound 0.04 µM)	relative viability (Alpelisib + Pictilisib; first compound 0.1265 µM)	relative viability (Alpelisib + Pictilisib; first compound 0.4 µM)	relative viability (Alpelisib + Pictilisib; first compound 1.265 µM)	relative viability (Alpelisib + Pictilisib; first compound 4 µM)	relative viability (Vemurafenib + Olaparib; first compound 0.03162 µM)	relative viability (Vemurafenib + Olaparib; first compound 0.1 µM)	relative viability (Vemurafenib + Olaparib; first compound 0.3162 µM)	relative viability (Vemurafenib + Olaparib; first compound 1 µM)
NCI-H358	0.751	0.653	0.717	0.664	0.503	0.7	0.47	0.928	0.882	0.382	0.316	0.379	0.268	0.205	0.539	0.745	0.625	0.521
NCI-H650	0.495	0.479	0.325	0.303	0.232	0.459	0.473	–	0.421	0.756	0.804	1.09	0.746	0.808	0.385	0.368	0.305	0.378
BEN	0.557	0.55	0.511	0.428	0.297	0.27	0.267	–	0.265	0.562	0.523	0.705	0.579	0.578	0.971	0.992	0.653	1.06
NCI-H647	0.656	0.468	0.385	0.363	0.36	0.636	0.629	0.477	0.564	0.446	0.385	0.402	0.294	0.378	0.605	0.469	0.513	0.634
NCI-H661	0.806	0.801	0.759	0.717	0.458	0.673	0.559	0.658	0.688	0.374	0.367	0.475	0.506	0.346	0.686	0.752	0.769	0.709
HCC-44	1.11	1.16	1.17	1.09	0.757	0.419	0.361	–	0.426	0.669	0.654	0.822	0.491	0.441	0.985	0.992	0.992	0.99
NCI-H2347	0.556	0.403	0.55	0.447	0.339	0.436	0.37	0.577	0.367	0.757	0.776	0.571	0.648	0.554	0.495	0.493	0.547	0.588
LC-2-ad	0.718	0.703	0.758	0.854	0.549	0.753	0.629	–	0.747	0.443	0.435	0.434	0.296	0.415	0.691	0.645	0.763	0.69
COR-L 105	0.552	0.727	0.879	0.617	0.605	0.649	–	–	0.582	0.39	0.352	0.435	0.378	0.341	0.617	–	0.742	0.734
NCI-H838	0.65	0.646	0.632	0.55	0.459	0.367	0.404	–	0.436	0.439	0.471	0.427	0.47	0.434	0.746	0.764	0.697	0.821
COR-L23	0.524	0.436	0.403	0.408	0.297	0.662	0.777	0.579	0.646	0.744	0.79	0.865	0.594	0.636	0.332	0.353	0.298	0.341
EMC-BAC-2	0.333	0.498	0.299	0.236	0.277	0.38	0.382	0.22	0.329	0.512	0.516	0.62	0.528	0.479	0.444	0.528	0.352	0.369
NCI-H3122	0.991	1.09	1.06	0.93	0.732	0.932	0.893	1.04	0.899	0.622	0.69	0.572	0.58	0.53	0.63	0.647	0.606	0.597
NCI-H1395	0.633	0.745	0.476	0.645	0.567	0.606	0.651	–	0.659	0.493	0.673	0.663	0.615	0.492	0.405	0.506	0.429	0.482
NCI-H2023	0.7	0.698	0.526	0.581	0.34	0.316	0.293	0.408	0.316	0.203	0.26	0.253	0.207	0.19	0.463	0.42	0.483	0.479
ChaGo-K-1	0.732	0.815	0.709	0.698	0.581	0.535	0.549	0.419	0.487	0.714	–	0.883	0.625	0.492	0.404	0.4	0.49	0.382
NCI-H1944	0.571	0.543	0.575	0.431	0.378	0.395	0.285	0.336	0.352	0.331	0.386	0.349	0.344	0.336	0.426	–	0.384	0.359
H3255	0.729	0.935	0.693	0.795	0.652	0.582	–	0.583	0.565	0.409	0.516	0.533	0.356	0.411	0.497	–	0.519	0.556
